Test results published in patent publication US6831104B2, “Insect pest eradication system” (priority 2000, dated 2004).
Where two headings read alike, the source gives them in different places.

Key:
active fire ant colonies = assay: Test 7: methanol alone; trans-dichloroethylene/methanol solution then Diazinon solution; format: in vivo, Red Fire Ant; details: for fire ant activity upon surface of mound: upon wetting first mound (about 5 inches) with the alcohol alone
Procedure: In the seventh test, active fire ant colonies were treated with methanol and then with a mixture of methanol plus trans-dichloroethylene. Additionally, an aqueous Diazinon® solution was applied to a targeted mound following application of the latter mixture. First, an active fire ant mound, approximately 5 inches in diameter, was treated with enough methanol to wet the surface of the mound. […] Then a solution of three parts methanol to one part trans-dichloroethylene was applied to the surface of a second fire ant mound approximately 8 inches in diameter. […] After five minutes, the second mound was pierced in several places with a steel shaft. A Diazinon® solution was then applied to the mound. At no time were ants observed exiting the second mound.

live fire ant colony [1] = details: in vivo
fire ant colony = assay: Test 1: trans-dichloroethylene/vegetable oil mixture poured on fire ant colony in 2-gallon flowerpot; format: in vivo, Red Fire Ant
Procedure: These tests were conducted on active fire ant mounds located primarily upon an acre tract of residential property in Lake Charles, La.
In the first test, a mixture of 1 part trans-dichloroethylene to 2 parts vegetable oil (liquid Crisco® brand vegetable oil) was used. A fire ant colony that had established itself within a 2-gallon flowerpot was treated with approximately 1 cup of a trans-dichloroethylene/vegetable oil mixture. The technique involved pouring the liquid mixture onto the surface of the targeted fire ant mound. Observations of fire ant activity were made upon application and following application of the mixture. Afterward, the contents of the infested flower pot were emptied upon a flat, ply-wood surface and dissected. The following results of individual fire ant activity within the treated soil were observed: […]

active fire ant mound = assay: General experimental method: knockout agent mixture then insecticide on fire ant mound, excavation of plugs; format: in vivo, Red Fire Ant; details: applied superficially to a fire ant mound
Source text: The experimental method used herein entailed first preparing a mixture of 1 part trans-dichloroethylene (knockout agent) and 2 parts vegetable oil (liquid Crisco® was the vegetable oil most often used in the test) and then applying the mixture to the surface of an active fire ant mound 12 inches or less in surface diameter. The oil with the knockout agent is preferably biodegradable and miscible with the knockout agent. Units of measure are in pints, with the mixture comprising approximately ½ pint trans-dichloroethylene for every pint of vegetable oil. Approximately one-quarter (¼) pint of the trans-dichloroethylene/vegetable oil mixture was applied to a fire-ant hill about 12-inches in surface diameter.
The next step entailed applying a suitable insecticide to the fire ant mound. The insecticide was a commercially available Diazinon® applied one of two forms onto a fire ant mound that had been treated with the trans-dichloroethylene mixture. […]
Following all of these tests, the targeted fire ant colonies were excavated in the form of plugs. These “plugs” of excavated earth that had comprised the fire ant colony measured about 12″×12″×12. […] Hundreds, if not thousands, of dead individual worker ants, dead ant larvae and eggs were detected. […]

live fire ant colony [2] = assay: Test 8: ethanol and water; trans-dichloroethylene/ethanol solution then Diazinon solution; parameters: species or system Red Fire Ant; details: in vivo
Source text: In eighth and ninth tests, the method of the seventh test was duplicated using two other alcohols, namely ethanol and isopropanol.

## CO [methanol]
Active fire ant colonies; in vivo
  knock out of fire ants within a targeted mound (conclusion): does not serve to knockout fire ants
Active fire ant colonies
  fire ant activity upon surface of mound: observed exiting the mound
Active fire ant colonies; listed as pure ethanol
  fire ant activity upon surface of mound: Significant fire ant activity

## CC(C)O [anhydrous isopropanol, isopropanol]
Live fire ant colony [1]
  knock out of fire ants within a targeted mound (conclusion): neither serves to knock out fire ants

## Cl/C=C/Cl [trans-dichloroethylene]
Fire ant colony; small dosages, short periods of exposure
  toxicity to fire ants (conclusion): not itself toxic to fire ants
Fire ant colony; treated soil exposed to the open air
  evaporation from treated soil: rapidly evaporates
Active fire ant mound
  incapacitation of individual insects in targeted fire ant mound: completely incapacitated

## CCO [anhydrous ethanol, ethanol]
Live fire ant colony [2]
  knock out of fire ants within a targeted mound (conclusion): neither serves to knock out fire ants
